Test results reported in US20070015663A1, “Growth regulator and process for growth regulation of plant” (SUPER BLAST SYSTEMS CO., LTD., priority 2001, published 2007).
Read-outs that look alike come from different tables or passages of the source.

What was measured:
perennial ryegrass = tested on: perennial ryegrass
Description: (§1) Absorbent cotton was spread on a 4.5 cm dish, and thereto was added 10 ml of a test solution. Seeds (10 seeds) were added thereto, grown at 23° C. for 4 days in the dark, and thereafter cultured at 23° C. for 3 days in the light (about 3000 lux).
FIG. 7 is a drawing illustrating the state of seeds within each of the dishes similarly to FIG. 1. FIG. 8 is a drawing comparing the length of each shoot and that of each root similarly to FIG. 2.

radish = tested on: radish
Description: as §1

lettuce [1] = tested on: lettuce
Description: as §1

lettuce [2] = tested on: lettuce; remark: listed apart in the source
Description: For control 1, absorbent cotton was spread on a 4.5 cm dish, and thereto was added 10 ml of water. Seeds (10 seeds) were added thereto, grown at 23° C. for 4 days in the dark, and thereafter cultured at 23° C. for 3 days in the light (about 3000 lux).

rice = details: 23° C. 4 days dark + 3 days light
Description: as §1
FIG. 1 is a drawing illustrating the state of seeds within each of the dishes. FIG. 2 is a drawing comparing the length of each shoot and the length of each root. […] For reference, the length of the label is 5 mm.

tomato = assay: Germination and seedling growth of tomato on absorbent cotton with test solution; format: in vivo, tomato (Lycopersicon esculentum)
Description: as §1
FIG. 3 is a drawing illustrating the state of germination within each of the dishes similarly to FIG. 1. FIG. 4 is a drawing comparing the length of each embryonic axis (shoot) and that of each root similarly to FIG. 2.
FIG. 11 is a drawing illustrating the state of seeds within each of the dishes similarly to FIG. 1, and each control is shown. […] In addition, the lengths of each shoot and root are presented.
(§2) Indole-3-acetate (IAA) was used as the auxin.

Veronica persica Poir = assay: Germination and seedling growth of Veronica persica Poir with test solution; format: in vivo
Description: as §1
FIG. 10 is a drawing illustrating the state of seeds within each of the dishes similarly to FIG. 1, and each control is shown. […] In addition, the lengths of each embryonic axis shoots and root are indicated.
as §2

[3] = volcanic ash+0.1% NaHCO3 (100 g and 0.1% NaHCO3 solution 28 g)
[4] = volcanic ash+1% NaHCO3 (100 g and 1% NaHCO3 solution 28 g)
[5] = volcanic ash+10% NaHCO3 (100 g and saturated sodium bicarbonate solution 28 g)

## O=C([O-])O.[Na+] [NaHCO3, sodium bicarbonate]
Perennial ryegrass; NaHCO3 0.003%
  length of the root: 25.3±0.9 mm
  length of the shoot: 24.7±0.3 mm
Perennial ryegrass; NaHCO3 0.01%
  length of the root: 27.3±1.5 mm
  length of the shoot: 42.0±0.6 mm
Perennial ryegrass; NaHCO3 0.03%
  length of the root: 26.0±0.6 mm
  length of the shoot: 44.3±1.5 mm
Perennial ryegrass; NaHCO3 0.1%
  length of the root: 28.0±1.5 mm
  length of the shoot: 55.7±0.7 mm
Perennial ryegrass; NaHCO3 0.3%
  length of the root: 4.7±0.3 mm
  length of the shoot: 19.0±0.6 mm
Perennial ryegrass; NaHCO3 1%
  length of the root: 0±0 mm
  length of the shoot: 0±0 mm
radish; NaHCO3 0.003%
  length of the embryonic axis (shoot): 66.3±4.1 mm
  length of the root: 37.0±1.5 mm
radish; NaHCO3 0.01%
  length of the embryonic axis (shoot): 74.0±1.5 mm
  length of the root: 71.3±1.9 mm
radish; NaHCO3 0.03%
  length of the embryonic axis (shoot): 60.0±3.1 mm
  length of the root: 80.7±5.9 mm
radish; NaHCO3 0.1%
  length of the embryonic axis (shoot): 66.7±3.4 mm
  length of the root: 22.0±1.5 mm
radish; NaHCO3 0.3%
  length of the embryonic axis (shoot): 19.3±0.7 mm
  length of the root: 7.3±1.3 mm
radish; NaHCO3 1%
  length of the embryonic axis (shoot): 0±0 mm
  length of the root: 0±0 mm
Lettuce [1]; NaHCO3 0.003%
  length of the root: 18.7±4.7 mm
  length of the shoot: 14.0±0.6 mm
Lettuce [1]; NaHCO3 0.01%
  length of the root: 21.0±0.6 mm
  length of the shoot: 24.3±0.9 mm
Lettuce [1]; NaHCO3 0.03%
  length of the root: 14.3±1.9 mm
  length of the shoot: 24.3±0.3 mm
Lettuce [1]; NaHCO3 0.1%
  length of the root: 11.0±0.6 mm
  length of the shoot: 15.7±0.3 mm
Lettuce [1]; NaHCO3 0.3%
  length of the root: 3.7±0.3 mm
  length of the shoot: 6.7±0.3 mm
Lettuce [1]; NaHCO3 1%
  length of the root: 0±0 mm
  length of the shoot: 0±0 mm
Lettuce [2]; [3]
  development of the root: 21.0±0.8 mm
  development of the shoot: 33.4±1.1 mm
Lettuce [2]; [4]
  length of the root: 5.4±1.1 mm
  length of the shoot: 26.0±1.5 mm
Lettuce [2]; [5]
  development of the root: 0 mm
  development of the shoot: 0 mm
rice; NaHCO3 0.003%
  length of the root: 32.0±9.3 mm
  length of the shoot: 11.0±1.0 mm
rice; NaHCO3 0.01%
  length of the root: 18.0±9.7 mm
  length of the shoot: 10.0±0 mm
rice; NaHCO3 0.03%
  length of the root: 23.7±0.9 mm
  length of the shoot: 15.0±1.0 mm
rice; NaHCO3 0.1%
  length of the root: 20.7±2.3 mm
  length of the shoot: 13.3±0.9 mm
rice; NaHCO3 0.3%
  length of the root: 2.3±0.3 mm
  length of the shoot: 7.3±1.5 mm
rice; NaHCO3 1%
  length of the root: 0±0 mm
  length of the shoot: 3.3±0.3 mm
tomato; in vivo
  germination: germination does not occur
  length of the shoot: 5 mm
Veronica persica Poir; in vivo
  length of the root: 9 mm
  length of the shoot: 8 mm

## O=C(O)Cc1c[nH]c2ccccc12 [IAA, indole-3-acetate]
tomato; Example 8, IAA 10^−4 M alone
  length of the root: 30 mm
  length of the shoot: 20 mm
tomato; Example 8, IAA 10^−5 M alone
  length of the root: 41 mm
  length of the shoot: 23 mm
Veronica persica Poir; Example 9, IAA 10^−4 M alone
  length of the root: 11 mm
  length of the shoot: 8 mm
Veronica persica Poir; Example 9, IAA 10^−5 M alone
  length of the root: 22 mm
  length of the shoot: 13 mm
